According to paper PMC7125537 (Bioorganic & Medicinal Chemistry Letters, 2010):

Test system: DU-145 cells
Assay: Migration assay
Format: cell-based, human

## NC(=S)N/N=C(/c1cccc(Br)c1)c1ccccc1F [analog 1, 3-bromophenyl-2′-fluorophenyl thiosemicarbazone]
  inhibition of DU-145 cell migration (in words): effective inhibitor of DU-145 cell invasion and migration
